Measurements from patent publication US20050234073A1, “Methods of inhibiting inflammation” (priority 2003, published 2005).

Legend:
[1] = tested on: splenocytes, CD11c-positive splenic DCs and BMDCs; assay: MHC class II-restricted presentation of ovalbumin to OT-II CD4+ T cells (IL-2 ELISA); type: cell-based, mouse
Procedure: FIG. 17F is a bar chart showing 11-2 production of CD11c^+ splenocytes incubated for 24 hours with BMS212122 or bone marrow derived dendritic cells incubated for 3 days with BMS212122 were washed and co cultured with 100 μg/mL ovalbumin and 100,000 CD4^+ cells from an OT-II transgenic mouse. IL-2 concentrations were measured by ELISA of 24 hour culture supernatants.
(§1) APCs were incubated with 100 ng/mL α-galcer (kindly provided by Dr. H. Ploegh) for 3 hours, washed three times in PBS and aliquoted into a 96 well plate at 10^6 cells/mL. DN32 cells were added at 1:1 E:T ratio unless otherwise indicated. CD4^+ cells were isolated from spleens of OT-II transgenic mice using positive selection on CD4 magnetic beads (Miltenyi Biotec) and incubated with APCs and 100 μg/mL ovalbumin. The 24.8 NKT cell line was incubated with APCs in the absence of added antigen at E:T=2:1 unless otherwise indicated. Mouse IL-2 production was assessed by ELISA (OptEIA, BD PharMingen) of 24 or 40 hour culture supernatants. APCs were treated with BMS212122 (10 uM dissolved in DMSO; kindly provided by Bristol Myers Squibb, New Jersey) as indicated and washed prior to addition of T or NKT cells. […]

BMDCs = assay: Flow cytometry of surface markers on BMDCs; type: cell-based, mouse
Procedure: FIG. 17E is a flow cytometric analysis showing BMDCs cultured for 4 days with BMS212122 were stained with FITC-conjugated mAb 1B1. Dashed line represents the isotype control.
FIG. 18 is flow cytometric analysis of in vitro differentiated bone marrow cells from wild type mice incubated with BMS212122 (MTPi) or vehicle Surface staining was performed using antibodies to MHC II (FITC-conjugated) and CD11c (PE-conjugated).
Bone marrow was extracted from the femurs of C57BL6 or MTPmx1cre mice, washed once in PBS and resuspended in R10 supplemented with culture supernatant from murine GM-CSF transfected cells for a final concentration of 200 U/mL GM-CSF. BMDCs were then cultured in bacteriological plates for 12-14 days as described. Differentiated cells were harvested by gentle pipetting, washed in PBS, and analyzed by flow cytometry for surface expression of CD11c and I-A^b. Human monocytes were harvested from the peripheral blood of healthy volunteers by positive selection on CD14 magnetic beads (Miltenyi Biotec) and cultured in R10 medium at 10^6 cells per mL supplemented with 200 U/mL recombinant hIL-4 and 300 U/mL recombinant hGM-CSF (PeproTech, Rocky Hill, N.J.). After 5 days cells were dislodged by gentle pipetting, analyzed by flow cytometry and assayed for antigen presentation.
Mouse cells were stained using the following antibodies: FITC-conjugated α-CD1d (1B1, PharMingen); PE-conjugated α-CD11c (HL3, PharMingen); FITC-conjugated α-1-A^d (AMS-32.1, PharMingen); PE-conjugated α-CD69 (H1.2F3, PharMingen); PE-conjugated α-B220 (RA3-6B2, PharMingen). Human cells were stained using: PE-conjugated α-CD83 (550634, PharMingen); FITC-conjugated α-HLA-A,B,C (557348, PharMingen); α-HLA DR,DP,DQ (32381A, PharMingen); α-CD1d (42.1 or 51.1.3); α-mouse IgG+IgM (AMI1708, Biosource, Camarillo, Calif.). Staining was performed in the presence of Via-Probe (PharMingen) and analyzed with a FACSort flow cytometer (Becton Dickinson).
The role of MTP in CD1d presentation by primary mouse APCs was examined. Splenocytes were isolated from wild type mice and assayed for their ability to present an exogenous antigen, α-galcer, to DN32 NKT cells and their ability to stimulate the autoreactive NKT cell line 24.8. When splenocytes were incubated with BMS212122 for 24 hours prior to addition of NKT cells, their ability to present exogenous and endogenous CD1d-restricted antigens was reduced (FIG. 17B). […] Dendritic cells were then isolated from wild type splenocytes by positive selection on CD11c magnetic beads. […] Dendritic cells from mouse bone marrow (BMDC) were cultured with BMS212122 or vehicle control after 6 days of differentiation in the presence of GM-CSF. On day 10, BMDCs were collected and cocultured with NKT cells. […]

HepG2 cells = conditions: cited from earlier work
moDCs = assay: Human moDC presentation of α-galcer to DN32 iNKT cells (IL-2 ELISA); type: cell-based; conditions: moDCs differentiated in presence of inhibitor
Procedure: FIG. 20G is a line graph showing IL-2 production in human moDCs differentiated in the presence of BMS212122 (◯) or vehicle (●) were incubated with α-galcer. IL-2 concentrations were measured by ELISA of 24 hour culture supernatants. *, p<0.05; **, p<0.01.
as §1, with “supernatants.” for “supernatants. APCs were treated with BMS212122 (10 uM dissolved in DMSO; kindly provided by Bristol Myers Squibb, New Jersey) as indicated and washed prior to addition of T or NKT cells.”
Bone marrow was extracted from the femurs of C57BL6 or MTPmx1cre mice, washed once in PBS and resuspended in R10 supplemented with culture supernatant from murine GM-CSF transfected cells for a final concentration of 200 U/mL GM-CSF. […] Differentiated cells were harvested by gentle pipetting, washed in PBS, and analyzed by flow cytometry for surface expression of CD11c and I-A^b. […] After 5 days cells were dislodged by gentle pipetting, analyzed by flow cytometry and assayed for antigen presentation. […]

C1Rd cells = assay: C1Rd cell presentation of α-galcer to DN32 NKT cells (IL-2 ELISA); type: cell-based, human; conditions: C1Rd cells cultured 5 days with inhibitor
Procedure: FIG. 20D is a bar chart showing IL-2 production in C1Rd cells cultured with BMS212122 or vehicle for 5 days that were incubated with α-galcer for 3 hours IL-2 concentrations were measured by ELISA of 24 hour culture supernatants. *, p<0.02.
as §1
C1Rd is a human B cell line transfected with human CD1d. […] Incubation of C1Rd cells with BMS212122, but not the vehicle, inhibited the presentation of α-galcer as determined by a reduction in IL-2 secretion (FIG. 20D).

MTP = MTP (Homo sapiens, UniProt P55157); conditions: cited from earlier work
MTP, sequence (P55157 19-894, species assumed): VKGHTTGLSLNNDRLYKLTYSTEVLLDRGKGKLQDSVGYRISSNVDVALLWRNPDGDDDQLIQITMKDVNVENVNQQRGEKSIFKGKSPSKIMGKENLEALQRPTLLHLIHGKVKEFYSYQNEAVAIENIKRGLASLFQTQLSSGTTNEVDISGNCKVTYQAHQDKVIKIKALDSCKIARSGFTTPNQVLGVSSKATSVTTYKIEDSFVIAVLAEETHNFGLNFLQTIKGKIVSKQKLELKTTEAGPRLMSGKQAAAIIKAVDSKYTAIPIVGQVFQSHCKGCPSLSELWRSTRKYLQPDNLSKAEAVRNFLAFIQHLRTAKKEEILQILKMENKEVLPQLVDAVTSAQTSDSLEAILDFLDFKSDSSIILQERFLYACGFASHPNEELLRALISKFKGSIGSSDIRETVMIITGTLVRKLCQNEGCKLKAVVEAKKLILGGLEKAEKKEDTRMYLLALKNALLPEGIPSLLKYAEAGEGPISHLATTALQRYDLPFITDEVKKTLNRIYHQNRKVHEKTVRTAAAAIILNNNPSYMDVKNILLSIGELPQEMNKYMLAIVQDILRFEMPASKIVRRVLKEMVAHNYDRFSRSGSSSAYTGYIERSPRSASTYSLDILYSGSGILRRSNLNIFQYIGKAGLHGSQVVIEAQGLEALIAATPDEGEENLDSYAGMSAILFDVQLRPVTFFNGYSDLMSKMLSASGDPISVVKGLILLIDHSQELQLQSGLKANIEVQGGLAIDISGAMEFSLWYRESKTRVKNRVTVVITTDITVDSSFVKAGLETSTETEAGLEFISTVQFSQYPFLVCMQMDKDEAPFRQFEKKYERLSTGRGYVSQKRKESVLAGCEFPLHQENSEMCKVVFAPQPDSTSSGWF
MTP, sequence (P07237 18-508 partner, species assumed): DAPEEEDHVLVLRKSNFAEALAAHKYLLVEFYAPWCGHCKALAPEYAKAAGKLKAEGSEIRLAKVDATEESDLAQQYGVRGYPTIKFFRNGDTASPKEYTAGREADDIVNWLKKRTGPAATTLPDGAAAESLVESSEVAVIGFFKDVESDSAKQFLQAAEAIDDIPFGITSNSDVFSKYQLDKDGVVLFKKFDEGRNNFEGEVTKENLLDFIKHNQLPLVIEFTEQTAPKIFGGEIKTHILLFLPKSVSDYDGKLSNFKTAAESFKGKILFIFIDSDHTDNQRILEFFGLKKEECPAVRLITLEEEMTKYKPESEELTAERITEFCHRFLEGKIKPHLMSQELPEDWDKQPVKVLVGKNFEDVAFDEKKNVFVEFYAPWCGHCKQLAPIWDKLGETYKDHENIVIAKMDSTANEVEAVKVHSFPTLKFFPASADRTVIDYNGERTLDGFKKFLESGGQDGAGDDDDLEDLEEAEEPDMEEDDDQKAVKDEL

Structure (SMILES): Cc1ccc2c(nc(C)n2CCCCC2(C(=O)NCC(F)(F)F)c3ccccc3-c3ccccc32)c1NC(=O)c1ccccc1-c1ccc(C(F)(F)F)cc1 [BMS212122, 9-[4-[2,5-Dimethyl-4-[[[4′-(trifluoromethyl)[1,1′-biphenyl]-2-yl]carbonyl]amino]-1H-benzimidazol-1-yl]butyl]-N-(2,2,2-trifluoroethyl)-9H-fluorene-9-carboxamide]
- presentation of ovalbumin to CD4+ MHC class II-restricted ovalbumin-specific T cells ([1]; CD11c-positive splenic DCs and BMDCs, inhibitor-treated): efficient presentation
- splenocyte presentation of ovalbumin to MHC class II-restricted T cell line OT-II ([1]; splenocytes, 24 hours inhibitor): no effect
- CD11c surface staining (BMDCs; BMDCs): unaffected
- MHC class II surface staining (BMDCs; BMDCs): unaffected
- CD1d expression on BMDCs, % of vehicle controls (BMDCs; after 4 days of treatment): 66%
- CD1d expression on BMDCs, % of level in vehicle treated controls (BMDCs; one day after addition): 86%
- secretion of apoB from HepG2 cells (HepG2 cells): prevents secretion
- capacity to present α-galcer to DN32 iNKT cells (moDCs): reduced capacity
- presentation of α-galcer (IL-2 secretion) (C1Rd cells): inhibited
- transfer of triglycerides, phospholipids, and cholesterol esters in vitro (MTP): blocks transfer
